# In patent publication US11149030B2, “Plants having increased tolerance to herbicides” (BASF AGRO B.V., priority 2016, dated 2021):
# Several values for one entry are separate records, joined by “and”; a condition that tells them apart may be missing. Identical values can stand only once.
# Experiments:
# [1] = test system: T2 maize events expressing the indicated Amaranthus PPO2 variant transgene; assay: Maize whole plant PPO inhibitor tolerance testing, injury 0-9 point scale (Table B); assay type: in vivo; details: V2 stage, 3 days after treatment, individual plants
# Experimental: Immature embryos are transformed according to the procedure outlined in Peng et al. (WO2006/136596). Plants are tested for the presence of the T-DNA by Taqman analysis with the target being the nos terminator which is present in all constructs. Healthy looking plants are sent to the greenhouse for hardening and subsequent spray testing. The plants are individually transplanted into MetroMix 360 soil in 4″ pots. Once in the greenhouse (day/night cycle of 27° C./21° C. with 14 hour day length supported by 600 W high pressure sodium lights), they are allowed to grow for 14 days. […] 200 g ai/ha saflufenacil+1.0% v/v methylated seed oil (MSO) and/or 25-200 g ai/ha 1,5-dimethyl-6-thioxo-3-(2,2,7-trifluoro-3-oxo-4-(prop-2-ynyl)-3,4-dihydro-2H-benzo[b][1,4]oxazin-6-yl)-1,3,5-triazinane-2,4-dione (CAS 1258836-72-4) plus 1% MSO. Other PPO inhibiting herbicides are also tested in a similar fashion for confirming cross resistance: flumioxazin, butafenacil, acifluorfen, lactofen, bifenox, sulfentrazone, methyl 2-[2-chloro-5-[3-chloro-5-(trifluoromethyl)-2-pyridyl]-4-fluoro-phenoxy]-2-methoxy-acetate, ethyl 2-[2-chloro-5-[3-chloro-5-(trifluoromethyl)-2-pyridyl]-4-fluoro-phenoxy]-2-methoxy-acetate, prop-2-ynyl 2-[2-chloro-5-[3-chloro-5-(trifluoromethyl)-2-pyridyl]-4-fluoro-phenoxy]-2-methoxy-acetate and photosynthesis inhibitor diuron as negative control. […] […] The top survivors are transplanted into gallon pots filled with Metro Mix 360 for seed production.
# [2] = test system: T2 soybean events expressing the indicated Amaranthus PPO2 variant transgene; assay: Soybean PPO inhibitor tolerance testing, injury score (Table C); assay type: in vivo, Soybean cv Jake; details: V2 stage, 3 days after treatment, individual plants
# Experimental: Soybean cv Jake is transformed as previously described by Siminszky et al., Phytochem Rev. 5:445-458 (2006). After regeneration, transformants are transplanted to soil in small pots, placed in growth chambers (16 hr day/8 hr night; 25° C. day/23° C. night; 65% relative humidity; 130-150 microE m-2 s-1) and subsequently tested for the presence of the T-DNA via Taqman analysis. After a few weeks, healthy, transgenic positive, single copy events are transplanted to larger pots and allowed to grow in the growth chamber. An optimal shoot for cutting is about 3-4 inches tall, with at least two nodes present. Each cutting is taken from the original transformant (mother plant) and dipped into rooting hormone powder (indole-3-butyric acid, IBA). The cutting is then placed in oasis wedges inside a bio-dome. The mother plant is taken to maturity in the greenhouse and harvested for seed. Wild type cuttings are also taken simultaneously to serve as negative controls. The cuttings are kept in the bio-dome for 5-7 days and then transplanted to 3 inch pots and then acclimated in the growth chamber for two more days. Subsequently, the cuttings are transferred to the greenhouse, acclimated for approximately 4 days prior to spray. […] g ai/ha saflufenacil plus 1% MSO and/or 25-200 g ai/ha 1,5-dimethyl-6-thioxo-3-(2,2,7-trifluoro-3-oxo-4-(prop-2-ynyl)-3,4-dihydro-2H-benzo[b][1,4]oxazin-6-yl)-1,3,5-triazinane-2,4-dione (CAS 1258836-72-4) plus 1% MSO. Other PPO inhibiting herbicides are also tested in a similar fashion for confirming cross resistance: flumioxazin, butafenacil, acifluorfen, lactofen, bifenox, sulfentrazone, methyl 2-[2-chloro-5-[3-chloro-5-(trifluoromethyl)-2-pyridyl]-4-fluoro-phenoxy]-2-methoxy-acetate, ethyl 2-[2-chloro-5-[3-chloro-5-(trifluoromethyl)-2-pyridyl]-4-fluoro-phenoxy]-2-methoxy-acetate, prop-2-ynyl 2-[2-chloro-5-[3-chloro-5-(trifluoromethyl)-2-pyridyl]-4-fluoro-phenoxy]-2-methoxy-acetate and photosynthesis inhibitor diuron as negative control. […]
# The following gives a definition of the injury scores measured above: […]
compound,measurement,setting,value
COC(=O)C(OC)Oc1cc(-c2ncc(C(F)(F)F)cc2Cl)c(F)cc1Cl (centres unmarked) [methyl 2-[2-chloro-5-[3-chloro-5-(trifluoromethyl)-2-pyridyl]-4-fluoro-phenoxy]-2-methoxy-acetate],injury on a 0-9 point scale,"[1]; maize T2, transgene L397D_F420M, 25 g ai/ha + 1% v/v MSO",0 (2×) and 3 and 1
same,injury on a 0-9 point scale,"[1]; maize T2, transgene L397D_F420M, 50 g ai/ha + 1% v/v MSO",0 (2×) and 1 (2×)
same,injury on a 0-9 point scale,"[1]; maize T2, transgene L397D_F420M, 100 g ai/ha + 1% v/v MSO",0 (3×) and 1
same,injury on a 0-9 point scale,"[1]; maize T2, transgene L397D_F420M, 200 g ai/ha + 1% v/v MSO",0 (2×) and 2 and 1
same,injury on a 0-9 point scale,"[1]; maize T2, transgene L397E_F420M, 25 g ai/ha + 1% v/v MSO",9 (2×) and 2 and 0
same,injury on a 0-9 point scale,"[1]; maize T2, transgene L397E_F420M, 50 g ai/ha + 1% v/v MSO",0 and 9 (2×) and 1
same,injury on a 0-9 point scale,"[1]; maize T2, transgene L397E_F420M, 100 g ai/ha + 1% v/v MSO",4 and 1 and 0
same,injury on a 0-9 point scale,"[1]; maize T2, transgene L397E_F420M, 200 g ai/ha + 1% v/v MSO",0 and 6 (2×) and 5
same,injury on a 0-9 point scale,"[1]; maize T2, transgene R128A_F420I, 25 g ai/ha + 1% v/v MSO",0 (2×) and 1 (2×)
same,injury on a 0-9 point scale,"[1]; maize T2, transgene R128A_F420I, 50 g ai/ha + 1% v/v MSO",2 and 1 (2×) and 0
same,injury on a 0-9 point scale,"[1]; maize T2, transgene R128A_F420I, 100 g ai/ha + 1% v/v MSO",0 (2×) and 1 (2×)
same,injury on a 0-9 point scale,"[1]; maize T2, transgene R128A_F420I, 200 g ai/ha + 1% v/v MSO",1 (3×) and 0
same,injury on a 0-9 point scale,"[1]; maize, Non transgenic, 25 g ai/ha + 1% v/v MSO",8 and 9 (3×)
same,injury on a 0-9 point scale,"[1]; maize, Non transgenic, 50 g ai/ha + 1% v/v MSO",9
same,injury on a 0-9 point scale,"[1]; maize, Non transgenic, 100 g ai/ha + 1% v/v MSO",9
same,injury on a 0-9 point scale,"[1]; maize, Non transgenic, 200 g ai/ha + 1% v/v MSO",9
same,injury on a 0-9 point scale,"[2]; soybean T2, transgene L397E_F420M, 25 g ai/ha + 1% v/v MSO",1
same,injury on a 0-9 point scale,"[2]; soybean T2, transgene L397E_F420M, 50 g ai/ha + 1% v/v MSO",3 and 4
same,injury on a 0-9 point scale,"[2]; soybean T2, transgene L397E_F420M, 100 g ai/ha + 1% v/v MSO",3 and 4 and 9
same,injury on a 0-9 point scale,"[2]; soybean T2, transgene L397E_F420M, 200 g ai/ha + 1% v/v MSO",3 (2×) and 4
same,injury on a 0-9 point scale,"[2]; soybean T2, transgene L397Q_F420M, 25 g ai/ha + 1% v/v MSO",1 and 0 and 9
same,injury on a 0-9 point scale,"[2]; soybean T2, transgene L397Q_F420M, 50 g ai/ha + 1% v/v MSO",9 and 1
same,injury on a 0-9 point scale,"[2]; soybean T2, transgene L397Q_F420M, 100 g ai/ha + 1% v/v MSO",3
same,injury on a 0-9 point scale,"[2]; soybean T2, transgene L397Q_F420M, 200 g ai/ha + 1% v/v MSO",3 and 9 and 4
same,injury on a 0-9 point scale,"[2]; soybean T2, transgene R128A_F420I event 1, 25 g ai/ha + 1% v/v MSO",0
same,injury on a 0-9 point scale,"[2]; soybean T2, transgene R128A_F420I event 1, 50 g ai/ha + 1% v/v MSO",1 and 2 (2×)
same,injury on a 0-9 point scale,"[2]; soybean T2, transgene R128A_F420I event 1, 100 g ai/ha + 1% v/v MSO",2 (2×) and 3
same,injury on a 0-9 point scale,"[2]; soybean T2, transgene R128A_F420I event 1, 200 g ai/ha + 1% v/v MSO",4 (2×) and 3
same,injury on a 0-9 point scale,"[2]; soybean T2, transgene R128A_F420I event 2, 25 g ai/ha + 1% v/v MSO",0 and 9
same,injury on a 0-9 point scale,"[2]; soybean T2, transgene R128A_F420I event 2, 50 g ai/ha + 1% v/v MSO",3 (2×) and 4
same,injury on a 0-9 point scale,"[2]; soybean T2, transgene R128A_F420I event 2, 100 g ai/ha + 1% v/v MSO",1 and 3
same,injury on a 0-9 point scale,"[2]; soybean T2, transgene R128A_F420I event 2, 200 g ai/ha + 1% v/v MSO",5 (2×) and 4
same,injury on a 0-9 point scale,"[2]; soybean T2, transgene R128A_F420I event 3, 25 g ai/ha + 1% v/v MSO",0
same,injury on a 0-9 point scale,"[2]; soybean T2, transgene R128A_F420I event 3, 50 g ai/ha + 1% v/v MSO",1 and 2 and 0
same,injury on a 0-9 point scale,"[2]; soybean T2, transgene R128A_F420I event 3, 100 g ai/ha + 1% v/v MSO",1 and 3
same,injury on a 0-9 point scale,"[2]; soybean T2, transgene R128A_F420I event 3, 200 g ai/ha + 1% v/v MSO",4
same,injury on a 0-9 point scale,"[2]; soybean T2, transgene R128A_F420V, 25 g ai/ha + 1% v/v MSO",2 and 1
same,injury on a 0-9 point scale,"[2]; soybean T2, transgene R128A_F420V, 50 g ai/ha + 1% v/v MSO",4 and 9
same,injury on a 0-9 point scale,"[2]; soybean T2, transgene R128A_F420V, 100 g ai/ha + 1% v/v MSO",4
same,injury on a 0-9 point scale,"[2]; soybean T2, transgene R128A_F420V, 200 g ai/ha + 1% v/v MSO",9 and 4 and 5
same,injury on a 0-9 point scale,"[2]; soybean, Non transgenic, 25 g ai/ha + 1% v/v MSO",9 (2×) and 8
same,injury on a 0-9 point scale,"[2]; soybean, Non transgenic, 50 g ai/ha + 1% v/v MSO",9
same,injury on a 0-9 point scale,"[2]; soybean, Non transgenic, 100 g ai/ha + 1% v/v MSO",9
same,injury on a 0-9 point scale,"[2]; soybean, Non transgenic, 200 g ai/ha + 1% v/v MSO",9 (2×) and 8
